Assay results as given in ChEMBL document CHEMBL1139677, “DNA interstrand crosslinking agents: synthesis, DNA interactions, and cytotoxicity of dimeric achiral seco-amino-CBI and conjugates of achiral seco-amino-CBI with pyrrolobenzodiazepine (PBD)” (Bioorg Med Chem Lett, 2006).
Activity calls are given as the source filed them. The calls are words filed in the database; no cut-off is given here.

Assays:
[1] = Induction of linear pBR322 DNA interstrand crosslinking; assay type: functional
P815 [2] = assay: Cytotoxicity against mouse P815 cells after 3 days; assay type: cell-based; conditions: P815, 72 h
[3] = Induction of supercoiled pBR322 DNA strand cleavage; assay type: functional
[4] = Induction of pBR322 DNA alkylation at 100 uM by thermally induced cleavage assay; assay type: functional
P815 [5] = assay: Cell cycle arrest in mouse P815 cells by accumulation at subG0 phase at 0.026 uM; assay type: functional
[6] = Induction of supercoiled pBR322 DNA strand cleavage at 6.6 uM; assay type: functional
[7] = Induction of linear pBR322 DNA interstrand crosslinking at 10 uM; assay type: functional
[8] = Induction of pBR322 DNA alkylation at 1 uM by thermally induced cleavage assay; assay type: functional
[9] = Induction of pBR322 DNA alkylation at 10 uM by thermally induced cleavage assay; assay type: functional
[10] = Induction of pBR322 DNA alkylation at 0.1 uM by thermally induced cleavage assay; assay type: functional

In the case of C=C1C[C@H]2C=Nc3cc(OCCCOc4cc5c(cc4OC)C(=O)N4CC(=C)C[C@H]4C=N5)c(OC)cc3C(=O)N2C1, the Activity [1] is reported as “Active”.
COc1cc2cc(C(=O)Nc3cc(N)c4ccccc4c3CCCl)[nH]c2c(OC)c1OC [CENTANAMYCIN] showed an IC50 (P815 [2]) of 68 nM.
With COC(=O)CCOc1cc2c(cc1OC)C(=O)N1CCC[C@H]1C=N2 the IC50 (P815 [2]) was 55000 nM, the Activity [3] was 4% and the Activity [4] was “inactive”.
Work on Nc1cc(NC(=O)c2cc3cc(NC(=O)Nc4ccc5oc(C(=O)Nc6cc(N)c7ccccc7c6CCCl)cc5c4)ccc3o2)c(CCCl)c2ccccc12 yielded an IC50 (P815 [2]) of 42000 nM.
Compound COc1cc2c(cc1OCCC(=O)Nc1ccc3oc(C(=O)Nc4cc(N)c5ccccc5c4CCCl)cc3c1)N=C[C@@H]1CCCN1C2=O has an IC50 (P815 [2]) of 26 nM, an Activity (P815 [5]) of 21% and an Activity [6] of 16%. The Activity [7] was “Active”, the Activity [8] was “Active” and the Activity [9] was “Active”.
In the case of COc1c(O)c2c(c3cc(C(=O)N4CCc5c4c(O)c(OC)c4[nH]c(C(=O)N6C[C@H]7C[C@@]78C6=CC(=O)c6[nH]cc(C)c68)cc54)[nH]c13)CCN2C(N)=O, the Activity [10] is reported as “Active”.
For COc1cc2c(cc1OCCC(=O)Nc1ccc3oc(C(=O)Nc4cc(O)ccc4CCCl)cc3c1)N=C[C@@H]1CCCN1C2=O, the IC50 (P815 [2]) was 560 nM.
Compound COc1cc2cc(C(=O)N3CC(CCl)c4c3cc(O)c3ccccc43)[nH]c2c(OC)c1OC (stereo not given) has an IC50 (P815 [2]) of 8.6 nM.
